Target: T1, human GPR119 (Homo sapiens, UniProt Q8TDV5)
T1 construct: expressed in transfected cells
T1 sequence (Q8TDV5 1-335): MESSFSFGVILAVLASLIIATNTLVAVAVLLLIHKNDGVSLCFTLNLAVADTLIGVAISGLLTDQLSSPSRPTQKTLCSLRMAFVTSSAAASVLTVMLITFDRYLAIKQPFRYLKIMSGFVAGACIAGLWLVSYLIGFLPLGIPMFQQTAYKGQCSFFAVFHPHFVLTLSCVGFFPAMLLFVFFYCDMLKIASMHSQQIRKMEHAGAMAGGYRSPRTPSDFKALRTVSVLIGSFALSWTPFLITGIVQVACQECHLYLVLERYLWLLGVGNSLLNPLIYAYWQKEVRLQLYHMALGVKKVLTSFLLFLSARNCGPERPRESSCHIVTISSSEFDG
Test: Functional cellular assay measuring GPR119-mediated cAMP release (HTRF) in HEK-293 cells stably expressing recombinant GPR119
Assay type: cell-based
Conditions: cAMP response, cell line expressing human GPR119 (HEK-293), 30 minutes at room temperature
Protocol: Functional Cellular Assays Measuring GPR119-Mediated cAMP Release
Compounds of the invention, which are agonists of GPR119, were characterized by functional assays measuring the cAMP response of HEK-293 cell lines stably expressing recombinant GPR119 from man, mouse or rat, or by using a hamster cell line HIT-T15 expressing GPR119 endogenously. The cAMP content was determined using a kit based on homogenous time-resolved fluorescence (HTRF) from Cisbio Corp. (cat. no. 62AM4PEC). For preparation, cells were split into T175 culture flasks and grown to near confluency in medium (DMEM/10% FCS for HEK-293 cells, and F-12K medium/10% horse serum/2.5% FCS for HIT-T15 cells, respectively). Medium was then removed and cells washed with PBS lacking calcium and magnesium ions, followed by proteinase treatment with accutase (Sigma-Aldrich, cat. no. A6964). Detached cells were washed and resuspended in assay buffer (1×HBSS; 20 mM HEPES, 0.1% BSA, 2 mM IBMX) and cellular density determined. They were then diluted to 400000 cells/mL and 25 μL-aliquots dispensed to the wells of 96-well plates. For measurement, 25 μL of test compound in assay buffer was added and incubated for 30 minutes at room temperature. After addition of HTRF reagents diluted in lysis buffer, the plates were incubated for 1 hour, followed by measuring the fluorescence ratio at 665 vs. 620 nm. Potency of the agonists was quantified by determining the concentrations that caused 50% of the maximal response/activation (EC50). See Table 3 for exemplary data obtained using the cell line expressing human GPR119.

Compound | EC50 [nM]
CN(C)C(=O)Cn1nc2ccc(N3CC[C@@H](Oc4ccc(OCC5CC5)nc4)C3=O)cn2c1=O [Example 1-09, 2-[6-[(3R)-3-[[6-(cyclopropylmethoxy)-3-pyridyl]oxy]-2-oxo-pyrrolidin-1-yl]-3-oxo-[1,2,4]triazolo[4,3-a]pyridin-2-yl]-N,N-dimethyl-acetamide] | 191
COC(=O)Cn1nc2ccc(N3CC[C@@H](Oc4ccc(OCC5CC5)nc4)C3=O)cc2n1 [Example 1-18, methyl 2-[5-[(3R)-3-[[6-(cyclopropylmethoxy)-3-pyridyl]oxy]-2-oxo-pyrrolidin-1-yl]benzotriazol-2-yl]acetate] | 34
O=C1[C@H](Oc2ccc(OCC3CC3)nc2)CCN1c1ccc2ncnn2c1 [Example 1-02, (3R)-3-[[6-(cyclopropylmethoxy)-3-pyridyl]oxy]-1-([1,2,4]triazolo[1,5-a]pyridin-6-yl)pyrrolidin-2-one] | 851
Cn1nc2ccc(N3CC[C@@H](Oc4ccc(OCC5CC5)nc4)C3=O)cn2c1=O [Example 1-23, 6-[(3R)-3-[[6-(cyclopropylmethoxy)-3-pyridyl]oxy]-2-oxo-pyrrolidin-1-yl]-2-methyl-[1,2,4]triazolo[4,3-a]pyridin-3-one] | 4200
CS(=O)(=O)Cn1nc2ccc(N3CC[C@@H](Oc4ccc(Oc5ccc(F)cc5)nc4)C3=O)cn2c1=O [Example 1-31, 6-[(3R)-3-[[6-(4-fluorophenoxy)-3-pyridyl]oxy]-2-oxo-pyrrolidin-1-yl]-2-(methylsulfonylmethyl)-[1,2,4]triazolo[4,3-a]pyridin-3-one] | 365
O=C(O)Cc1cn2cc(N3CC[C@@H](Oc4ccc(OCC5CC5)nc4)C3=O)ccc2n1 [Example 1-19, 2-[6-[(3R)-3-[[6-(cyclopropylmethoxy)-3-pyridyl]oxy]-2-oxo-pyrrolidin-1-yl]imidazo[1,2-a]pyridin-2-yl]acetic acid] | > 100000
COC(=O)Cc1nc2ccc(N3CC[C@@H](Oc4ccc(OCC5CC5)nc4)C3=O)cn2n1 [Example 1-07, methyl 2-[6-[(3R)-3-[[6-(cyclopropylmethoxy)-3-pyridyl]oxy]-2-oxo-pyrrolidin-1-yl]-[1,2,4]triazolo[1,5-a]pyridin-2-yl]acetate] | 1580
O=C1[C@H](Oc2ccc(OCC3CC3)nc2)CCN1c1cc(F)c2n[nH]c(=O)n2c1 [Example 1-25, 6-[(3R)-3-[[6-(cyclopropylmethoxy)-3-pyridyl]oxy]-2-oxo-pyrrolidin-1-yl]-8-fluoro-2H-[1,2,4]triazolo[4,3-a]pyridin-3-one] | 249
CN(C)C(=O)Cn1nc2cc(N3CC[C@@H](Oc4ccc(OCC5CC5)nc4)C3=O)cc(F)c2n1 [Example 1-22, 2-[6-[(3R)-3-[[6-(cyclopropylmethoxy)-3-pyridyl]oxy]-2-oxo-pyrrolidin-1-yl]-4-fluorobenzotriazol-2-yl]-N,N-dimethyl-acetamide] | 182
O=C(Cn1nc2c(F)cc(N3CC[C@@H](Oc4ccc(OCC5CC5)nc4)C3=O)cn2c1=O)NC1CC1 [Example 2-02, N-cyclopropyl-2-[6-[(3R)-3-[[6-(cyclopropylmethoxy)-3-pyridyl]oxy]-2-oxo-pyrrolidin-1-yl]-8-fluoro-3-oxo-[1,2,4]triazolo[4,3-a]pyridin-2-yl]acetamide] | 123
CS(=O)(=O)Cn1nc2ccc(N3CC[C@@H](Oc4ccc(OCC(F)(F)F)nc4)C3=O)cn2c1=O [Example 1-33, 2-(methylsulfonylmethyl)-6-[(3R)-2-oxo-3-[[6-(2,2,2-trifluoroethoxy)-3-pyridyl]oxy]pyrrolidin-1-yl]-[1,2,4]triazolo[4,3-a]pyridin-3-one] | 113
CN(C)C(=O)Cn1nc2ccc(N3CC[C@@H](Oc4ccc(C(=O)CC5CC5)cc4)C3=O)cn2c1=O [Example 1-12, 2-[6-[(3R)-3-[4-(2-cyclopropylacetyl)phenoxy]-2-oxo-pyrrolidin-1-yl]-3-oxo-[1,2,4]triazolo[4,3-a]pyridin-2-yl]-N,N-dimethyl-acetamide] | 269
COC(=O)Cc1cn2cc(N3CC[C@@H](Oc4ccc(OCC5CC5)nc4)C3=O)ccc2n1 [Example 1-20, methyl 2-[6-[(3R)-3-[[6-(cyclopropylmethoxy)-3-pyridyl]oxy]-2-oxo-pyrrolidin-1-yl]imidazo[1,2-a]pyridin-2-yl]acetate] | 9920
Cn1nc2ccc(N3CC[C@@H](Oc4ccc(OCC5CC5)nc4)C3=O)cc2n1 [Example 1-21, (3R)-3-[[6-(cyclopropylmethoxy)-3-pyridyl]oxy]-1-(2-methylbenzotriazol-5-yl)pyrrolidin-2-one] | 2050
CN(C)C(=O)Cn1cc2cc(N3CC[C@@H](Oc4ccc(OCC(F)(F)F)nc4)C3=O)ccc2n1 [Example 1-34, N,N-dimethyl-2-[5-[(3R)-2-oxo-3-[[6-(2,2,2-trifluoroethoxy)-3-pyridyl]oxy]pyrrolidin-1-yl]indazol-2-yl]acetamide] | 103
O=C1[C@H](Oc2ccc(Oc3ccc(F)cc3)nc2)CCN1c1cc(F)c2n[nH]c(=O)n2c1 [Example 1-10, 8-fluoro-6-[(3R)-3-[[6-(4-fluorophenoxy)-3-pyridyl]oxy]-2-oxo-pyrrolidin-1-yl]-2H-[1,2,4]triazolo[4,3-a]pyridin-3-one] | 658
CS(=O)(=O)Cn1nc2ccc(N3CC[C@@H](Oc4ccc(C(=O)C5CC5)cc4)C3=O)cn2c1=O [Example 1-32, 6-[(3R)-3-[4-(cyclopropanecarbonyl)phenoxy]-2-oxo-pyrrolidin-1-yl]-2-(methylsulfonylmethyl)-[1,2,4]triazolo[4,3-a]pyridin-3-one] | 196
COC(=O)Cn1cc2ccc(N3CC[C@@H](Oc4ccc(OCC5CC5)nc4)C3=O)cc2n1 [Example 1-15, methyl 2-[6-[(3R)-3-[[6-(cyclopropylmethoxy)-3-pyridyl]oxy]-2-oxo-pyrrolidin-1-yl]indazol-2-yl]acetate] | 924
COC(=O)c1nc2ccc(N3CC[C@@H](Oc4ccc(OCC5CC5)nc4)C3=O)cn2n1 [Example 1-08, methyl 6-[(3R)-3-[[6-(cyclopropylmethoxy)-3-pyridyl]oxy]-2-oxo-pyrrolidin-1-yl]-[1,2,4]triazolo[1,5-a]pyridine-2-carboxylate] | 5540
O=C(O)Cn1nc2ccc(N3CC[C@@H](Oc4ccc(OCC5CC5)nc4)C3=O)cc2n1 [Example 1-17, 2-[5-[(3R)-3-[[6-(cyclopropylmethoxy)-3-pyridyl]oxy]-2-oxo-pyrrolidin-1-yl]benzotriazol-2-yl]acetic acid] | 2110
CN(C)C(=O)Cn1nc2c(F)cc(N3CC[C@@H](Oc4ccc(C(=O)CC5CC5)cc4)C3=O)cn2c1=O [Example 1-13, 2-[6-[(3R)-3-[4-(2-cyclopropylacetyl)phenoxy]-2-oxo-pyrrolidin-1-yl]-8-fluoro-3-oxo-[1,2,4]triazolo[4,3-a]pyridin-2-yl]-N,N-dimethyl-acetamide] | 179
CN(C)C(=O)Cn1nc2ccc(N3CC[C@@H](Oc4ccc(OCC5CC5)nc4)C3=O)cc2n1 [Example 2-03, 2-[5-[(3R)-3-[[6-(cyclopropylmethoxy)-3-pyridyl]oxy]-2-oxo-pyrrolidin-1-yl]benzotriazol-2-yl]-N,N-dimethyl-acetamide] | 127
COC(=O)Cn1c(C)c2ccc(N3CC[C@@H](Oc4ccc(OCC5CC5)nc4)C3=O)cn2c1=O [Example 1-04, methyl 2-[6-[(3R)-3-[[6-(cyclopropylmethoxy)-3-pyridyl]oxy]-2-oxo-pyrrolidin-1-yl]-1-methyl-3-oxo-imidazo[1,5-a]pyridin-2-yl]acetate] | 155
O=C1[C@H](Oc2ccc(OCC3CC3)nc2)CCN1c1ccc2n[nH]c(=O)n2c1 [Example 1-14, 6-[(3R)-3-[[6-(cyclopropylmethoxy)-3-pyridyl]oxy]-2-oxo-pyrrolidin-1-yl]-2H-[1,2,4]triazolo[4,3-a]pyridin-3-one] | 701
O=C1[C@H](Oc2ccc(OCC3CC3)nc2)CCN1c1ccc2nccn2c1 [Example 1-03, (3R)-3-[[6-(cyclopropylmethoxy)-3-pyridyl]oxy]-1-imidazo[1,2-a]pyridin-6-yl-pyrrolidin-2-one] | 7620
O=C(Cn1nc2ccc(N3CC[C@@H](Oc4ccc(OCC5CC5)nc4)C3=O)cc2n1)NCCO [Example 2-04, 2-[5-[(3R)-3-[[6-(cyclopropylmethoxy)-3-pyridyl]oxy]-2-oxo-pyrrolidin-1-yl]benzotriazol-2-yl]-N-(2-hydroxyethyl)acetamide] | 343
COC(=O)Cn1nc2ccc(N3CC[C@@H](Oc4ccc(OCC5CC5)nc4)C3=O)cn2c1=O [Example 1-26, methyl 2-[6-[(3R)-3-[[6-(cyclopropylmethoxy)-3-pyridyl]oxy]-2-oxo-pyrrolidin-1-yl]-3-oxo-[1,2,4]triazolo[4,3-a]pyridin-2-yl]acetate] | 113

Source: US9758520B2, “Substituted fused heterocycles as GPR119 modulators for the treatment of diabetes, obesity, dyslipidemia and related disorders” (SANOFI, priority 2014, dated 2017)
